Reference: US6492397B1, “N-arylheteroarylalkyl imidazol-2-one compounds for treatment of arteriosclerosis” (Pharmacia Corporation, priority 1991, dated 2002)
pIC50: −log10 of the molar value. Where two headings read alike, the source gives them in different places.

Experiments:
[1] = biological target: smooth muscle angiotensin II receptor; test: Assay A: Angiotensin II Binding Activity (125I-angiotensin II displacement, rat uterine membrane preparation); details: 50% displacement of specifically bound 125I-AII, rat uterine membranes, 25° C., 60 min
Experimental: Assay A: Angiotensin II Binding Activity
Compounds of the invention were tested for ability to bind to the smooth muscle angiotensin II receptor using a rat uterine membrane preparation. […] Other chemicals were obtained from Sigma Chemical Co. This assay was carried out according to the method of Douglas et al [Endocrinology, 106, 120-124 (1980)]. Rat uterine membranes were prepared from fresh tissue. All procedures were carried out at 4° C. Uteri were stripped of fat and homogenized in phosphate-buffered saline at pH 7.4 containing 5 mM EDTA. The homogenate was centrifuged at 1500×g for 20 min., and the supernatant was recentrifuged at 100,000×g for 60 min. The pellet was resuspended in buffer consisting of 2 mM EDTA and 50 mM Tris-HCl (pH 7.5) to a final protein concentration of 4 mg/ml. Assay tubes were charged with 0.25 ml of a solution containing 5 mM MgCl2, 2 mM EDTA, 0.5% bovine serum albumin, 50 mM Tris-HCl, pH 7.5 and […] (approximately 10^5 cpm) in the absence or in the presence of unlabelled ligand. The reaction was initiated by the addition of membrane protein and the mixture was incubated at 25° C. for 60 min. The incubation was terminated with ice-cold 50 mM Tris-HCl (pH 7.5) and the mixture was filtered to separate membrane-bound labelled peptide from the free ligand. The incubation tube and filter were washed with ice-cold buffer. Filters were assayed for radioactivity in a Micromedic gamma counter. Nonspecific binding was defined as binding in the presence of 10 μM of unlabelled AII. Specific binding was calculated as total binding minus nonspecific binding. […] Binding data were analyzed by a nonlinear least-squares curve fitting program.

rabbit aortic rings = test: Assay B: In Vitro Vascular Smooth Muscle Response for AII (antagonist activity in rabbit aortic rings); format: cell-based; details: Oryctolagus cuniculus, test antagonist at 10^-5 M, AII contraction, read-out: Assay B pA2 (converted)
Experimental: Assay B: In Vitro Vascular Smooth Muscle-Response for AII
The compounds of the invention were tested for antagonist activity in rabbit aortic rings. Male New Zealand white rabbits (2-2.5 kg) were sacrificed using an overdose of pentobarbital and exsanguinated via the carotid arteries. The thoracic aorta was removed, cleaned of adherent fat and connective tissue and then cut into 3-mm ring segments. The endothelium was removed from the rings by gently sliding a rolled-up piece of filter paper into the vessel lumen. The rings were then mounted in a water-jacketed tissue bath, maintained at 37° C., between moveable and fixed ends of a stainless steel wire with the moveable end attached to an FT03 Grass transducer coupled to a Model 7D Grass Polygraph for recording isometric force responses. The bath was filled with 20 ml of oxygenated (95% oxygen/5% carbon dioxide) Krebs solution of the following composition (mM): 130 NaCl, 15 NaHCO3, […], 1.2 NaH2PO4, 1.2 MgSO4, 2.5 CaCl2, and 11.4 glucose. The preparations were equilibrated for one hour before approximately one gram of passive tension was placed on the rings. Angiotensin II concentration-response curves were then recorded (3×10^−10 to 1×10^−5 M). Each concentration of AII was allowed to elicit its maximal contraction, and then AII was washed out repeatedly for 30 minutes before rechallenging with a higher concentration of AII. Aorta rings were exposed to the test antagonist at 10^−5 M for 5 minutes before challenging with AII. Adjacent segments of the same aorta ring were used for all concentration-response curves in the presence or absence of the test antagonist. The effectiveness of the test compound was expressed in terms of pA2 values and were calculated according to H. O. Schild [Br. J. Pharmacol. Chemother., 2,189-206 (1947)]. The PA2 value is the concentration of the antagonist which increases the EC50 value for AII by a factor of two. Each test antagonist was evaluated in aorta rings from two rabbits.

pressor response to AII = test: Assay C: In Vivo Intragastric Pressor Assay Response for AII Antagonists; parameters: species or system rat; details: for Assay C Duration: Dose: 3 mg/kg (i.g.), Sprague-Dawley rats, AII challenges up to 180 minutes after gavage; for inhibition in vivo at 3 mg/kg: Rattus norvegicus, po
Experimental: Assay C: In Vivo Intragastric Pressor Assay Response for AII Antagonists
Male Sprague-Dawley rats weighing 225-300 grams were anesthetized with methohexital (30 mg/kg, i.p.) and catheters were implanted into the femoral artery and vein. The catheters were tunneled subcutaneously to exit dorsally, posterior to the head and between the scapulae. The catheters were filled with heparin (1000 units/ml of saline). The rats were returned to their cage and allowed regular rat chow and water ad libitum. After full recovery from surgery (3-4 days), rats were placed in Lucite holders and the arterial line was connected to a pressure transducer. Arterial pressure was recorded on a Gould polygraph (mmHg). Angiotensin II was administered as a 30 ng/kg bolus via the venous catheter delivered in a 50 μl volume with a 0.2 ml saline flush. The pressor response in mm Hg was measured by the difference from pre-injection arterial pressure to the maximum pressure achieved. The AII injection was repeated every 10 minutes until three consecutive injections yielded responses within 4 mmHg of each other. These three responses were then averaged and represented the control response to AII. The test compound was suspended in 0.5% methylcellulose in water and was administered by gavage. The volume administered was 2 ml/kg body weight. The standard dose was 3 mg/kg. Angiotensin II bolus injections were given at 30, 45, 60, 75, 120, 150, and 180 minutes after gavage. The pressor response to AII was measured at each time point. The rats were then returned to their cage for future testing. A minimum of 3 days was allowed between tests. Percent inhibition was calculated for each time point following gavage by the following formula: [(Control Response−Response at time point)/Control Response]×100.

[2] = first value of the pair (aorta rings from two rabbits)
[3] = second value of the pair (aorta rings from two rabbits)

Structure (SMILES)	pIC50 [1]	melting point	Kb (rabbit aortic rings; [2])	Kb (rabbit aortic rings; [3])	Assay C Duration (pressor response to AII)	inhibition in vivo at 3 mg/kg (pressor response to AII)
CCCCc1cn(CCCC)c(=O)n1Cc1ccc(-c2cnccc2-c2nnn[nH]2)cc1 [Example 41, 1,4-dibutyl-1,3-dihydro-3-[[4-[4-(1H-tetrazol-5-yl)-3-pyridinyl]phenyl]methyl]-2H-imidazol-2-one]	6.80	128 to 130 °C				
CCCCc1cn(CCCC)c(=O)n1Cc1ccc(-c2cccnc2-c2nnn[nH]2)cc1 [Example 43, 1,4-dibutyl-1,3-dihydro-3-[[4-[2-(1H-tetrazol-5-yl)-3-pyridinyl]phenyl]methyl]-2H-imidazol-2-one]	7.05	178 to 179.5 °C	0.0282 µM	0.0214 µM		
CCCCc1cn(C2CCCCC2)c(=O)n1Cc1ccc(-c2ccccc2-c2nnn[nH]2)nc1 [Example 21, 1-cyclohexyl-4-butyl-1,3-dihydro-3-[[6-[2-(1H-tetrazol-5-yl)phenyl]-3-pyridinyl]methyl]-2H-imidazol-2-one]	7.70	202 to 203 °C (dec.)	0.000724 µM	0.000708 µM	>180 min	40%
CCCCc1cn(CC(C)(C)C)c(=O)n1Cc1ccc(-c2ccccc2-c2nnn[nH]2)nc1 [Example 18, 1-neopentyl-4-butyl-1,3-dihydro-3-[[6-[2-(1H-tetrazol-5-yl)phenyl]-3-pyridinyl]methyl]-2H-imidazol-2-one]	7.92	194.5 to 195 °C	0.00162 µM	0.00229 µM	>180 min	65%
CCCCCc1cn(CCCC)c(=O)n1Cc1ccc(-c2ccccc2-c2nnn[nH]2)nc1 [Example 6, 1-butyl-4-yl-1,3-dihydro-3-[[6-[2-(1H-tetrazol-5-yl)phenyl]-3-pyridinyl]methyl]-2H-imidazol-2-one]	8.00	176 to 177 °C	0.0135 µM	0.0129 µM	180 min	10%
CCCCc1cn(-c2c(Cl)cccc2Cl)c(=O)n1Cc1ccc(-c2ccccc2-c2nnn[nH]2)nc1 [Example 37, 1-(2,6-dichlorophenyl)-4-butyl-1,3-dihydro-3-[[6-[2-(1H-tetrazol-5-yl)phenyl]-3-pyridinyl]methyl]-2H-imidazol-2-one]	8.32	212 to 212.5 °C			>180 min	25%
CCCCc1cn(CC(C)C)c(=O)n1Cc1ccc(-c2ccccc2-c2nnn[nH]2)nc1 [Example 13, 1-isobutyl-4-butyl-1,3-dihydro-3-[[6-[2-(1H-tetrazol-5-yl)phenyl]-3-pyridinyl]methyl]-2H-imidazol-2-one]	7.85	160 to 161.5 °C	0.00933 µM	0.00251 µM		
CCCCc1cn(CCCC)c(=O)n1Cc1ccc(-c2ccncc2-c2nnn[nH]2)cc1 [Example 42, 1,4-dibutyl-1,3-dihydro-3-[[4-[3-(1H-tetrazol-5-yl)-4-pyridinyl]phenyl]methyl]-2H-imidazol-2-one]	7.03	176 to 178 °C (dec.)				
CCCCc1cn(-c2c(F)cccc2F)c(=O)n1Cc1ccc(-c2ccccc2-c2nnn[nH]2)nc1 [Example 36, 1-(2,6-difluorophenyl)-4-butyl-1,3-dihydro-3-[[6-[2-(1H-tetrazol-5-yl)phenyl]-3-pyridinyl]methyl]-2H-imidazol-2-one]	8.15	164.5 to 165.5 °C (dec.)			120 min	75%
CCCCc1cn(CCC)c(=O)n1Cc1ccc(-c2ccccc2-c2nnn[nH]2)nc1 [Example 12, 1-propyl-4-butyl-1,3-dihydro-3-[[6-[2-(1H-tetrazol-5-yl)phenyl]-3-pyridinyl]methyl]-2H-imidazol-2-one]	7.51	164 to 165 °C	0.0209 µM	0.0055 µM		
CCCCc1cn(CCCC)c(=O)n1Cc1ccc(-c2ncccc2-c2nnn[nH]2)cc1 [Example 40, 1,4-dibutyl-1,3-dihydro-3-[[4-[3-(1H-tetrazol-5-yl)-2-pyridinyl]phenyl]methyl]-2H-imidazol-2-one]	7.04	178 to 179.5 °C				
CCCCc1cn(CCC(C)(C)C)c(=O)n1Cc1ccc(-c2ccccc2-c2nnn[nH]2)nc1 [Example 19, 1-(3,3-dimethylbutyl)-4-butyl-1,3-dihydro-3-[[6-[2-(1H-tetrazol-5-yl)phenyl]-3-pyridinyl]methyl]-2H-imidazol-2-one]	8.04		0.00372 µM	0.00437 µM	>180 min	50%
CCCCc1cn(CCc2ccccc2)c(=O)n1Cc1ccc(-c2ccccc2-c2nnn[nH]2)nc1 [Example 26, 1-(2-phenylethyl)-4-butyl-1,3-dihydro-3-[[6-[2-(1H-tetrazol-5-yl)phenyl]-3-pyridinyl]methyl]-2H-imidazol-2-one]	8.44		0.00437 µM	0.00363 µM	180 min	15%
CCCCc1cn(C)c(=O)n1Cc1ccc(-c2ccccc2-c2nnn[nH]2)nc1 [Example 10, 1-methyl-4-butyl-1,3-dihydro-3-[[6-[2-(1H-tetrazol-5-yl)phenyl]-3-pyridinyl]methyl]-2H-imidazol-2-one]	7.33	184 to 185 °C (dec.)	0.0229 µM	0.0447 µM		
CCCCn1cc(C2CCCC2)n(Cc2ccc(-c3ccccc3-c3nnn[nH]3)nc2)c1=O [Example 8, 1-butyl-4-cyclopentyl-1,3-dihydro-3-[[6-[2-(1H-tetrazol-5-yl)phenyl]-3-pyridinyl]methyl]-2H-imidazol-2-one]	6.85	195 to 196 °C (dec.)				
CCCCc1cn(CC)c(=O)n1Cc1ccc(-c2ccccc2-c2nnn[nH]2)nc1 [Example 11, 1-ethyl-4-butyl-1,3-dihydro-3-[[6-[2-(1H-tetrazol-5-yl)phenyl]-3-pyridinyl]methyl]-2H-imidazol-2-one]	7.47	205 °C (dec.)	0.00363 µM	0.00933 µM		
